In patent publication US20110065597A1, “SINGLE MOLECULE PROTEOMICS WITH DYNAMIC PROBES” (LI-COR, INC., priority 2009, published 2011):

What was measured:
[1] = Photostability of dye-labeled secondary antibody in fixed NIH3T3 cells (fluorescence intensity vs exposure number); type: physicochemical; settings: FIG. 3B, compared with IRDye 680 and Alexa Fluor 680
Procedure: LI-COR IRDye 700DX is shown in FIG. 3A which has multiple charged groups. NIH3T3 cells were fixed and permeabilized, followed by incubation with rabbit anti-histone primary antibody and goat anti-rabbit secondary antibody labeled with IRDye 680, IRDye 700DX, or Alexa Fluor 680. Images were recorded in movies of 2-second exposures by a Roper Micromax CCD in a Zeiss Axiovert S100 microscope. The mean fluorescence intensity of the field is plotted against exposure number (FIG. 3B).

neutravidin = neutravidin (Gallus gallus, UniProt P02701); settings: at each individual immobilized biotin molecule, picomolar neutravidin in solution; cited from earlier work
Sequence of neutravidin (P02701 25-152): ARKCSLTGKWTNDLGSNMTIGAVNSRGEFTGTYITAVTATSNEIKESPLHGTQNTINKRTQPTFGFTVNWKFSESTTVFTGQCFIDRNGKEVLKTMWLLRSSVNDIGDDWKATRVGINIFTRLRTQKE

photostability [1] | SMILES | diffusion-limited binding rate (neutravidin) [M⁻¹ s⁻¹]
superior | C[Si](C)(CCC[N+](CCCS(=O)(=O)[O-])(CCCS(=O)(=O)[O-])CCCS(=O)(=O)[O-])O[Si]1(O[Si](C)(C)CCC[N+](CCCS(=O)(=O)[O-])(CCCS(=O)(=O)[O-])CCCS(=O)(=O)[O-])n2c3c4ccccc4c2N=C2N=C(N=c4c5ccccc5c(n41)=NC1=NC(=N3)c3ccccc31)c1cccc(OCCCOC(=O)NCCCCCC(=O)ON3C(=O)CCC3=O)c12.[Na+].[Na+].[Na+].[Na+] (centres unmarked) [IRDye, 700DX] | 
 | O=C(O)CCCC[C@@H]1SC[C@@H]2NC(=O)N[C@@H]21 [biotin] | 1.9e+08
